Consider two substances from publication PMC6413231, “o-Vanillin Derived Schiff Bases and Their Organotin(IV) Compounds: Synthesis, Structural Characterisation, In-Silico Studies and Cytotoxicity” (International Journal of Molecular Sciences, 2019).

The subject of experiment [1] is MCF-7 (breast) cancer cells. As to the kind of experiment: MTT growth inhibition assay, MCF-7. The experiment is classed as cell-based. The following applies: MCF-7 cells, 72 h, ± standard error, read-out: Growth Inhibition Concentration, GI50. The protocol:
(§1) The Schiff bases and their organotin(IV) compounds were screened for in vitro cytotoxicity against a panel of 12 cancer cell lines: EJ-28 (muscle invasive bladder), RT-112 (minimum-invasive bladder), HT29 (colon), U87 and SJ-G2 (glioblastoma), MCF-7 (breast), A2780 (ovarian), H460 (lung), A431 (skin), DU145 (prostate), BE2-C (neuroblastoma), MIA (pancreatic) and one normal breast cell line (MCF-10A) using the MTT metabolic assay (Figure 6). After 72 h of incubation, a dose-dependent […] effect towards the cancer cell lines was measured at very low micromolar (µM) concentrations of the compounds. The growth inhibition concentration of the Schiff bases and their organotin(IV) compounds required to inhibit 50% cell proliferation relative to the cells that were treated with DMSO (control) are given in Table 2. The stability of these compounds was assessed in DMSO as well as in a mixture of DMSO-H2O. The absorbance obtained from UV-vis spectroscopy analysis was monitored for 72 h, and an unchanged pattern in the spectra was indicative that the compounds were stable in both the solvent systems tested.
(§2) For HT29 (colon), U87 and SJ-G2 (glioblastoma), MCF-7 (breast), A2780 (ovarian), H460 (lung), A431 (skin), Du145 (prostate), BE2-C (neuroblastoma), MIA (pancreas) cell lines and one normal breast cell line, MCF-10A (normal breast), the MTT assays were performed using the following method:
(§3) Stock solutions were prepared as follows and stored at −20 °C: Trial compounds were stored as 10 mM solutions in DMSO. All cell lines were cultured in a humidified atmosphere 5% CO2 at 37 °C. The cancer cell lines were maintained in Dulbecco’s modified Eagle’s medium (DMEM) (Trace Biosciences) supplemented with 10% foetal bovine serum, 10 mM sodium bicarbonate, penicillin (100 IU/mL), streptomycin (100 μg/mL) and glutamine (4 mM). The normal cell line, MCF-10A was cultured in DMEM:F12 (1:1) cell culture media, 5% heat inactivated horse serum, supplemented with penicillin (50 IU/mL), streptomycin (50 μg/mL), 20mM Hepes, L-glutamine (2 mM), epidermal growth factor (20 ng/mL), hydrocortisone (500 ng/mL), cholera toxin (100 ng/mL) and insulin (10 μg/mL).
(§4) Cells in logarithmic growth were transferred to 96-well plates. Cytotoxicity was determined by plating cells in duplicate in 100 μL medium at a density of 2500–4000 cells/well. On day 0 (24 h after plating), when the cells were in logarithmic growth, 100 μL medium, with or without the test agent, was added to each well. After 72 h drug exposure, growth inhibitory effects were evaluated using the MTT (3-[4,5-dimethylthiazol-2-yl]-2,5-diphenyltetrazolium bromide) assay and absorbance read at 540 nm. Percentage growth inhibition was determined at a fixed drug concentration of 25 μM. A value of 100% was indicative of complete cell growth inhibition. Those analogues showing appreciable percentage growth inhibition underwent further dose-response analysis allowing for the calculation of a GI50 value. This value is the drug concentration at which cell growth is 50% inhibited based on the difference between the optical density values on day 0 and those at the end of drug exposure.

Another experiment has as its system H460 (lung) cancer cells. The experiment in a line: MTT growth inhibition assay, H460. Type of experiment: cell-based. Particulars: 72 h, ± standard error, read-out: Growth Inhibition Concentration, GI50. How it is done:
as §1, §2, §3, §4

Experiment [2] has as its system A2780 (ovarian) cancer cells. The experiment in a line: MTT growth inhibition assay, A2780. Type of experiment: cell-based. Particulars: 72 h, ± standard error, read-out: Growth Inhibition Concentration, GI50. The protocol:
as §1, §2, §3, §4
(In general: Tetrazolium assays rely on reduction of a dye to a coloured formazan, in cell work by metabolically active cells.)

In experiment [3] the test system is SJ-G2 (glioblastoma) cancer cells. The experiment in a line: MTT growth inhibition assay, SJ-G2. Type of experiment: cell-based. The following applies: for GI50: MTT, 72 h, ± standard error, read-out: Growth Inhibition Concentration, GI50. How it is done: as §1, §2, §3, §4
Experiment [4] has as its system RT-112 (minimum-invasive bladder) cancer cells. As to the kind of experiment: MTT cytotoxicity assay, RT-112. The experiment is classed as cell-based, human. Particulars: RT-112 cells, 72 h, ± standard error, read-out: Growth Inhibition Concentration, GI50. The protocol: as §1
(§5) The inhibitory effect of the synthesised compounds on the growth of bladder (EJ-28 and RT-112) cancer cells was evaluated by MTT assay. […] RT-112 and EJ-28, human bladder cancer cell lines used in this study (ATCC, Manassas, VA, USA) were cultured in RPMI-1640 (High glucose) medium supplemented with 10% fetal bovine serum containing 1% penicillin. The cells were cultured at 37 °C in a humidified atmosphere of 5% CO2 in air. Cells were seeded in 96-well plates at 6000 cells per well for 24 h, then they were treated with different concentrations of compounds for 72 h. The medium was subsequently removed and the wells were washed with 200 µL of phosphate buffer saline. Aliquots of 20 µL of 3-(4,5-dimethylthiazol-2-yl)-2,5-diphenyltetrazolium bromide (MTT) was added to each well and incubated for 4 h at 37 °C. Aliquots of 200 µL of media was then removed from each well and 200 µL of DMSO was added. Optical density (OD) was measured using an ELISA plate reader at 570 nm. Control wells (100% viability), containing media and DMSO, were included in all the experiments. All data points represented an average of triplicate assays. Cytotoxicity was expressed as CD50, i.e., the concentration that reduced the absorbance of treated cells by 50% with reference to the control (untreated cells).

Experiment [5] concerns BE2-C (neuroblastoma) cancer cells. As to the kind of experiment: MTT growth inhibition assay, BE2-C. The experiment is classed as cell-based. Particulars: 72 h, ± standard error, read-out: Growth Inhibition Concentration, GI50. The protocol:
as §1, §2, §3, §4

Experiment [6] relates to EJ-28 (muscle invasive bladder) cancer cells. The experiment in a line: MTT cytotoxicity assay, EJ-28. The experiment is classed as cell-based, human. Particulars: EJ-28 cells, 72 h, ± standard error, read-out: Growth Inhibition Concentration, GI50. The protocol:
as §1, §5

For experiment [7], the system named is MIA (pancreatic) cancer cells. As to the kind of experiment: MTT growth inhibition assay, MIA. Particulars: 72 h, ± standard error, read-out: Growth Inhibition Concentration, GI50. The experiment is classed as cell-based. How it is done: as §1, §2, §3, §4
Experiment [8] deals with U87 (glioblastoma) cancer cells. The experiment in a line: MTT growth inhibition assay, U87. Type of experiment: cell-based. Particulars: 72 h, ± standard error, read-out: Growth Inhibition Concentration, GI50. The protocol:
as §1, §2, §3, §4

A further experiment has as its system A431 (skin) cancer cells. The experiment in a line: MTT growth inhibition assay, A431. Type of experiment: cell-based. Particulars: 72 h, ± standard error, read-out: Growth Inhibition Concentration, GI50. How it is done: as §1, §2, §3, §4

As for “Diphenyltin(IV) [Ph2Sn(S4MoVa), Diphenyltin(IV) [S-4-Methybenzyl-β-N-(2-hydroxy-3-methoxybenzylmethylene) dithiocarbazate]]”, the GI50 was found to be 820 ± 140 nM in experiment [1]; 1900 ± 230 nM in the experiment on H460 (lung) cancer cells; 350 ± 70 nM in experiment [2]; 1000 ± 160 nM in [3]; 1700 ± 490 nM in [4]; 530 ± 10 nM in [5]. Moreover, the GI50 in [6] worked out at 3100 ± 370 nM; in [7] it was 390 ± 30 nM; in [8], 1300 ± 400 nM; with A431 (skin) cancer cells, 1400 ± 380 nM.

As to “Diphenyltin(IV) [Ph2Sn(S2MoVa), Diphenyltin(IV) [S-2-Methybenzyl-β-N-(2-hydroxy-3-methoxybenzylmethylene) dithiocarbazate]]”, the GI50 in experiment [1] was 1400 ± 120 nM; in the experiment on H460 (lung) cancer cells, 2800 nM; in [2], 230 ± 10 nM; in experiment [3], 840 ± 90 nM; in experiment [4] it was 310 ± 50 nM; in experiment [5], 470 ± 50 nM. For the same substance, the GI50 in [6] is 350 ± 50 nM; in experiment [7], 340 ± 20 nM; in experiment [8], 4400 ± 1700 nM; in the experiment on A431 (skin) cancer cells, 2100 ± 90 nM. The “greater activity than respective Schiff base” value in experiment [3] (GI50 comparison) was 3 fold.
